Data from paper PMC11148772, “Inhibition of protein translational machinery in triple-negative breast cancer as a promising therapeutic strategy” (Cell Reports Medicine, 2024).
“Also recorded” adds a separate entry of the source.

Columns and labels:
MDA-MB-231 cells = experiment: Polysome profiling; assay type: cell-based, human; conditions: 1 μM, 12 h
Experimental: 1 x 10^6 MDA-MB-231 cells were plated in 100 mm culture plate and allowed to be attached for 24 h. Next day, cells were treated with vehicle or SU056 (1 μM) for 12 h in regular culture medium. Next, cells were incubated with cycloheximide (10 μg/mL) for 5 min at 37°C. Cells were then washed twice in 1x PBS with 10 μg/mL cycloheximide and collected by trypsinization and snap freeze in liquid nitrogen. Cell pellet was lysated in 250 μL polysome lysis buffer (5 mM Tris-HCl [pH 7.4], 1.5 mM KCl, 2.5 mM MgCl2, 0.1 mg/mL cycloheximide, 100 U/mL RNasin, 1× EDTA-free Complete protease inhibitor cocktail, 2 mM DTT, 0.5% Triton X-100, 0.5% deoxycholate). Lysate were quantified taking absorbance at 260 nm using Nanodrop and loaded on a linear 15%–50% sucrose gradient. The gradients were ultracentrifuged SW41Ti rotor (Beckman) for 1 h and 30 min at 180,000 g at 4°C in Beckman Optima LE-80K Ultracentrifuge. The gradients were fractionated in 1 mL volume fractions with continuous monitoring absorbance at 254 nm using an ISCO UA-6 UV detector at Immagina Biotechnology, Pergine, Italy.

[1] = tested on: translation machinery molecules (RPLs, RPSs, eIFs) in MDA-MB-231-YB-1 knockdown cells; experiment: CETSA in YB-1 knockdown cells; assay type: binding, human; conditions: YB-1 knockdown vs scrambled control cells
Description: In the second CETSA experiment with MDA-MB-231- YB-1 knockdown cells, the Orbitrap Eclipse Tribrid mass spectrometer parameters consisted of setting the cycle time at Top-speed at 1 s, the mass scan range set between 375 and 1800 m/z, and a mass resolution of 50,000. The normalized AGC target and maximum injection time was set to standard and auto respectively. The precursor ions were selected from highest to lowest charge state, sorted by the lowest m/z, and fragmented using Higher Energy Collisional Dissociation (HCD) with a fixed collisional energy of 38%. Dynamic exclusion was enabled for 60 s with a mass tolerance of ±10 ppm. The normalized AGC target set to 200% with a maximum injection time of 86 ms. MS2 fragments were detected in the Orbitrap with a mass resolution of 50,000 and scan range window of 110–1800 m/z.
Proteins were quantified using individual spectra matched peptides based on a sum-based bootstrap algorithm, which used the TMT reporter ion intensity after correcting for isotope impurities with Proteome Discoverer 2.4. The protein levels were compared between the vehicle and SU056 treated samples. The lowest temperature was used as a reference to calculate the log2 ratio of the soluble fraction signal at each temperature, and the signal at each temperature was compared to the […] temperature to estimate the percentage of signal lost in the soluble fraction. […]

SUM159 cells = experiment: MTT cell viability assay; assay type: cell-based; conditions: Homo sapiens, 48 h
Experimental: MDA-MB-231 (5000 cells per well), MDA-MB-468 (6000 cells per well), SUM159 (3000 cells per well), 4T1 (2000 cells per well), EMT6 (2000 cells per well), E0771 (3000 cells per well), MCF10A (5000 cells per well) and MCF12A (5000 cells per well) cells were seeded in 96-well culture plates. On the next day, cells were treated with either DMSO or indicated concentrations of SU056 for 48 h 3-(4,5-dimethylthiazol-2-yl)-2,5-diphenyltetrazolium bromide (MTT) (0.5 mg/mL) was dissolved in 1x PBS and 50 μL were added to each well and allowed to form formazan crystals (1–2 h) followed by removal of MTT. Formazan crystals were dissolved in DMSO and plates were scanned at 570nm using a Tecan multimode plate reader.

[2] = Maximum tolerated dose / acute oral toxicity; assay type: in vivo; set-up: key to Behavioral, Neurologic and Autonomic signs, Response, all listed signs: 0; no adverse effect; ±1 mild adverse effect; ±2, moderate adverse effect; ±3 severe adverse effect; conditions: for Body Weight, Mean / Toxicity (death/test) / Behavioral, Neurologic and Autonomic signs, Response, all listed signs: Female SD rats; for Behavioral, Neurologic and Autonomic signs, Response, all listed signs: observation time 1 hr, 3 animals
Experimental: Female Sprague-Dawley rats (Charles river laboratories, strain code: Crl:CD(SD) 001, 8–10 weeks old) were used by the eurofins lab services (Eurofins Discovery) to test the toxicity of SU056.
The acute oral toxicity of SU056 was evaluated by Eurofins lab services (Eurofins discovery). The oral toxicity study was performed in female rats and mice for multiple escalating doses (100 mg/kg, 200 mg/kg, 400 mg/kg). Rats and mice were monitored for their behavioral, neurological and autonomic signs after administration of SU056. The response was recorded as 0; no adverse effect, ±1 mild adverse effect, ±2, moderate adverse effect and ±3 severe adverse effect.

[3] = target: T1, YB-1 and RPL11 interaction (Homo sapiens, UniProt P67809); experiment: Immunoprecipitation of YB-1; assay type: cell-based; conditions: MDA-MB-231 and MDA-MB-468, 1 μM
T1 construct: Immunoprecipitation of YB-1 from protein lysates of SU056-treated MDA-MB-231 and MDA-MB-468 cells using YB-1 antibody; endogenous in cells; host or cells: MDA-MB-231; MDA-MB-468
Experimental: MDA-MB-231 and MDA-MB-468 cells with and without SU056 (1 μM) treatment for 6 and 12 h respectively and were lysed using M-PER lysis solution (Thermo Scientific, #78503), supplemented with Halt protease and phosphatase inhibitor cocktail (Thermo Scientific, #78440). Precleaned 300 μg protein lysate was incubated overnight at 4°C with 3 μg YB-1 (Abcam, #ab76149) on nutating rocker. The antibody was pulled down using 20 μL Protein A/G magnetic beads (Thermo scientific #88802). After three washings, beads were resuspended in 2X SDS sample buffer followed by heating at 90°C–100°C for 5 min. Samples were resolved and probed with indicated antibodies as described in immunoblotting assay.

## O=C1OCC2=C1C(c1cccc(F)c1)c1cc3c(cc1N2CCO)OCO3 (centres unmarked) [SU056, 9-(3-fluorophenyl)-5-(2-hydroxyethyl)-6,9-dihydro-[1,3]dioxolo[4,5-g]furo[3,4-b]quinolin-8(5H)-one]
MDA-MB-231 cells
  translational efficiency compared to control cells: reduced translational efficiency
[1]
  thermal stability of translation machinery molecules (RPLs, RPSs, and eIFs): does not increase
SUM159 cells
  IC50: 1170 ± 340 nM
[2]; 100 mg/kg, 0 hr
  Body Weight, Mean: 212.7 gm
[2]; 100 mg/kg, 15 min
  Toxicity (death/test): 0/3
[2]; 100 mg/kg, 1 hr
  Toxicity (death/test): 0/3
[2]; 100 mg/kg, 24 hr
  Body Weight, Mean: 216.7 gm
[2]; 100 mg/kg, 24 hrs
  Toxicity (death/test): 0/3
[2]; 100 mg/kg, 48 hr
  Body Weight, Mean: 219.0 gm
[2]; 100 mg/kg, 48 hrs
  Toxicity (death/test): 0/3
[2]; 100 mg/kg, 72 hr
  Body Weight, Mean: 229.7 gm
[2]; 100 mg/kg, 72 hrs
  Toxicity (death/test): 0/3
[2]; 100 mg/kg
  Behavioral, Neurologic and Autonomic signs, Response, all listed signs: 0
[2]; 200 mg/kg, 0 hr
  Body Weight, Mean: 204.3 gm
[2]; 200 mg/kg, 15 min
  Toxicity (death/test): 0/3
[2]; 200 mg/kg, 1 hr
  Toxicity (death/test): 0/3
[2]; 200 mg/kg, 24 hr
  Body Weight, Mean: 208.0 gm
[2]; 200 mg/kg, 24 hrs
  Toxicity (death/test): 0/3
[2]; 200 mg/kg, 48 hr
  Body Weight, Mean: 211.0 gm
[2]; 200 mg/kg, 48 hrs
  Toxicity (death/test): 0/3
[2]; 200 mg/kg, 72 hr
  Body Weight, Mean: 215.0 gm
[2]; 200 mg/kg, 72 hrs
  Toxicity (death/test): 0/3
[2]; 200 mg/kg
  Behavioral, Neurologic and Autonomic signs, Response, all listed signs: 0
[2]; 400 mg/kg, 0 hr
  Body Weight, Mean: 204.0 gm
[2]; 400 mg/kg, 15 min
  Toxicity (death/test): 0/3
[2]; 400 mg/kg, 1 hr
  Toxicity (death/test): 0/3
[2]; 400 mg/kg, 24 hr
  Body Weight, Mean: 200.0 gm
[2]; 400 mg/kg, 24 hrs
  Toxicity (death/test): 0/3
[2]; 400 mg/kg, 48 hr
  Body Weight, Mean: 209.7 gm
[2]; 400 mg/kg, 48 hrs
  Toxicity (death/test): 0/3
[2]; 400 mg/kg, 72 hr
  Body Weight, Mean: 216.7 gm
[2]; 400 mg/kg, 72 hrs
  Toxicity (death/test): 0/3
[2]; 400 mg/kg
  Behavioral, Neurologic and Autonomic signs, Response, all listed signs: 0
[2]; rats, 100, 200, and 400 mg/kg oral gavage, 72 h
  behavioral, neurological, and anatomical signs of toxicity and morbidity: not affected; also recorded: no observable changes
[3]
  YB-1 and RPL11 interaction: inhibits
